Experimental data reported in US6194424A, “Arylacetamides and their use as medicaments” (Bayer Aktiengesellschaft, priority 1996, dated 2001).

Test system: ApoB-100-associated lipoproteins (HepG2 cells)
Assay: Inhibition of the release of ApoB-100-associated lipoproteins from HepG2 liver cells (immunoassay of culture supernatant)
Type: cell-based
Settings: Homo sapiens, substance concentration at which light absorption (450 nm) is inhibited by 50% vs solvent control, read-out: Apo B IC50
Method: The test for detection of the inhibition of the release of ApoB-100-associated lipoproteins from liver cells was carried out in vitro using cultured liver cells, preferably using cells of the human line HepG2. These cells are cultured under standard conditions in medium for the culture of eucaryotic cells, preferably in RPMI 1640 using 10% foetal calf serum. HepG2 cells synthesize and secrete into the culture supernatant ApoB-100-associated lipoprotein particles, which in principle are of similar construction to the VLDL or LDL particles which are to be, found in the plasma.
These particles can be detected using an immunoassay for human LDL. This immunoassay is carried out using antibodies which have been induced under standard conditions in the rabbit to human LDL. The anti-LDL antibodies (rabbit anti-LDL-Ab) were purified by affinity chromatography on an immunosorbent using human LDL. These purified rabbit anti-LDL-Ab are adsorbed onto the surface of plastic. […] The immune complex on the plastic surface is detected using monoclonal antibodies which have been induced against human LDL and purified according to standard conditions. […] After acidification of the reaction mixture with H2 SO4, the specific light absorption at 450 nm is determined, which is a measure of the amount of ApoB-100-associated particles which have been secreted into the culture supernatant by the HepG2 cells. […]

Cc1cc(C)c2c3ccccc3n(Cc3ccc([C@@H](C(=O)Nc4ccccc4)C4CCCC4)cc3)c2n1 [Example 2]
IC50: 8.2 nM

CCCCCNC(=O)[C@H](c1ccc(Cn2c3ccccc3c3c(C)cc(C)nc32)cc1)C1CCCC1 [Example 20]
IC50: 12.5 nM
